Measurements from publication PMC11157491, “Novel Alaninamide Derivatives with Drug-like Potential for Development as Antiseizure and Antinociceptive Therapies—In Vitro and In Vivo Characterization” (ACS Chemical Neuroscience, 2024).
Where two headings read alike, the source gives them in different places.

Experiments:
[1] = test system: human liver microsomes (HLMs); assay: Metabolic stability in human liver microsomes; assay type: in vitro ADME
Excerpt: Molecular mass Molecular mass of the
Substrate (m/z) metabolite (m/z) Metabolic pathway
* Reference unstable drug; metabolic stability determined using the same procedure published previously

[2] = target: CYP3A4 (Homo sapiens, UniProt P08684); details: 1 μM
[3] = test system: Na^+ channel (site 2); assay: Na+ channel (site 2) radioligand binding; details: 100 μM, rat cerebral cortex
Experimental: Importantly, sodium or calcium conductance is often associated with the pathophysiology of epilepsy as well as neuropathic pain.[46]−[50] Therefore, both sodium and calcium ion channels are well-established molecular targets for structurally diverse ASMs such as LCS, lamotrigine, carbamazepine, oxcarbazepine, etc.[51] Consequently, we carried out binding and/or functional studies toward the sodium channel (site 2) and calcium Cav1.2 channel at high concentrations (100 μM) of 26 and 28 (Table 5). […] Next, 26 and 28 due to the presence of the phenylpiperazine moiety, which is a well-recognized pharmacophore for serotoninergic receptor (5-HTxR) ligands,[52] were evaluated for their influence on 5-HT2CR, where stimulation plays a key role for the antiseizure activity of lorcaserin (one of the newest ASMs).[6]
(§1) Binding/functional studies were carried out commercially in Eurofins Laboratories (Poitiers, France) and Eurofins Panlabs Discovery Services Taiwan, Ltd. (New Taipei City, Taiwan) using testing procedures that were reported previously (for details, see Table S2).
(§2) Table S2. Radioligand binding and functional assays. […]
(§3) Assays were performed commercially in Eurofins Laboratories ( Poitiers, France) or Eurofins Panlabs Discovery Services
(§4) Taiwan, Ltd. (New Taipei City, Taiwan).

[4] = target: T1, TRPV1 (VR1) (h) (Homo sapiens, UniProt Q8NER1); assay: TRPV1 antagonist effect functional assay; assay type: cell-based; details: 10 μM, human recombinant CHO cells; read-out: % inhibition of control agonist response
T1 construct: Eurofins (contract assay)
Experimental: For many years, the TRPV1 channel, permeable to calcium and sodium ions, has been recognized as a promising molecular target for novel analgesics.[19] […] Therefore, bearing in mind the involvement of TRPV1 in pain sensation and potentially in seizure induction, in the next step of the in vitro studies, the TRPV1 antagonist activity was determined for all compounds obtained (Table 6).
as §1, §2
TRPV1 (VR1) (h) (antagonist effect) […]
as §3, §4

[5] = HepG2 cell viability (hepatotoxicity); assay type: cell-based, human; details: human, HepG2 hepatoma cells; at 1.56 μM, 48 h; read-out: HepG2 viability (% of control ± SD)
Experimental: (§5) The in vitro safety tests were performed with the use of a hepatoma HepG2 cell line to estimate the hepatotoxic potential of the tested compounds.

[6] = test system: HepG2 cell line; assay: HepG2 cell viability (hepatotoxicity); assay type: cell-based, human; details: for cell survival: HepG2, 100 μM; for concentration from which a statistically significant decrease of cell viability was observed: HepG2, 48 h
Experimental: as §5

[7] = test system: mice; assay: 6 Hz (32 mA) psychomotor seizure model; assay type: in vivo; details: Mus musculus, ip; for responders at 100 mg/kg: 100 mg/kg i.p., 0.5 h; for ED50: mice, pretreatment 0.5 h
Excerpt: Identification and profiling of new ASM candidate compounds are still largely based on predictive animal models of seizures/epilepsy, while a range of in silico and in vitro approaches (i.e., molecular modeling or high throughput screening, etc.) are increasingly used in the early stages of ASM discovery.[31] The Epilepsy Therapy Screening Program (ETSP) of the National Institute of Neurological Disorders and Stroke (NIH, Bethesda, MD) has enabled the discovery of several approved ASMs by focusing on the in vivo testing of compounds synthesized by both academic laboratories and industry.[32] The ETSP provides a broad panel of seizure tests (ca. 30 rodent models), but a subset of them is used for the initial screening of new compounds with potential antiseizure activity. The routinely used seizure models include: (i) the MES test, which is an experimental model of tonic–clonic seizures, (ii) the 6 Hz model (32 mA) of focal seizures, and (iii) the scPTZ model of generalized absence or myoclonic seizures.[33],[34] Consequently, in the current studies, all final compounds 21–36 and 45–48 were initially studied in the MES and the 6 Hz (32 mA) seizure models after intraperitoneal (i.p.) administration at a screening dose of 100 mg/kg in mice at a time point of 0.5 h (the screening group consisted of four mice, and the results obtained are summarized in Table S1).
These parameters were then used to calculate the protective indexes (PIs, PI = TD50/ED50), which describe the therapeutics window of potential drug candidates. The ED50, TD50, and PI values for the tested compounds together with data of their chemical prototypes KA-11 and KJ-5 and reference ASMs are summarized in Table 2.
The adult male Albino Swiss mice weighed between 22 and 26 g were used in the in vivo studies. They were housed under standardized housing conditions in colony cages and had free access to food as well as tap water. The animals were left to adapt under laboratory conditions for 7 days. All procedures involving animals and their care were performed in accordance with the current European Community and Polish legislation on animal experimentation.
In the initial screening studies, four mice per group were randomly assigned to each experimental group (each mouse was used only once). To evaluate the ED50 or TD50 values, four groups consisting of eight animals were injected with various doses of tested compounds. The protective indexes (PIs) for the compounds investigated and reference ASMs were calculated by dividing the TD50 value, as determined in the chimney test, by the respective ED50 value, as determined in the MES, scPTZ, or 6 Hz (32 or 44 mA) tests (PI = TD50/ED50). The PIs are a measure of the potential therapeutic window of the tested agent.
All substances were suspended in Tween 80 (1% aqueous solution) and administered i.p. as a single injection at a dose of 10 mL/kg. On each day of experimentation, fresh solutions were prepared. The detailed in vivo procedures are described elsewhere: the maximal electroshock seizure test (MES),[60] the subcutaneous pentylenetetrazole seizure test (scPTZ),[61] the 6 Hz psychomotor seizure model (32 and 44 mA),[62] and the chimney test.[63] The reference ASMs were purchased from commercial suppliers: VPA (Sigma-Aldrich, St. Louis, MO), LCS, and LEV (UCB Pharma, Braine l’Alleud, Belgium).

[8] = four mice, read-out: protection in 6 Hz (32 mA) screening
[9] = read-out: 6 Hz (32 mA): number of mice protected/number of mice tested (converted)

T1 sequence (Q8NER1 whole entry): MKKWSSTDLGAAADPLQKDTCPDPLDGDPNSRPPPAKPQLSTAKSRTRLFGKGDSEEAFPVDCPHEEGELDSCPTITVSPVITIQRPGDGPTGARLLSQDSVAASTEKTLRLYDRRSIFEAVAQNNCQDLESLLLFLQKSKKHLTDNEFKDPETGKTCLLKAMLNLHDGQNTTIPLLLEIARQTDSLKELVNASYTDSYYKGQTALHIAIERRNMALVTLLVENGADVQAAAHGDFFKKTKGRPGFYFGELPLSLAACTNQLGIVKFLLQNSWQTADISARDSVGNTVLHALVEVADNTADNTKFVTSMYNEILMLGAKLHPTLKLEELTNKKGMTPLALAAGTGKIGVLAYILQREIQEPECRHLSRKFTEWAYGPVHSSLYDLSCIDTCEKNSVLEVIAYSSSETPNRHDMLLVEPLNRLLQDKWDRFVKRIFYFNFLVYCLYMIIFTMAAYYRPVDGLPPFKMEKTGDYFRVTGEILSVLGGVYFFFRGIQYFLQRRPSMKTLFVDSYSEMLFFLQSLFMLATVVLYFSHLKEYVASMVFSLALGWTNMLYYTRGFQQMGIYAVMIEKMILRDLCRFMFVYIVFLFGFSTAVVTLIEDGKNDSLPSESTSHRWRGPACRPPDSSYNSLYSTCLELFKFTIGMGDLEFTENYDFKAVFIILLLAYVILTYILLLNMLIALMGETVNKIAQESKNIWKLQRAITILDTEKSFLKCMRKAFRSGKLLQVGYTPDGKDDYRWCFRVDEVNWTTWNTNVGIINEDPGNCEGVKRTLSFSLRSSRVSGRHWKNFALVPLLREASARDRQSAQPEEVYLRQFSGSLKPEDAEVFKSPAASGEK
CYP3A4, sequence (P08684 whole entry): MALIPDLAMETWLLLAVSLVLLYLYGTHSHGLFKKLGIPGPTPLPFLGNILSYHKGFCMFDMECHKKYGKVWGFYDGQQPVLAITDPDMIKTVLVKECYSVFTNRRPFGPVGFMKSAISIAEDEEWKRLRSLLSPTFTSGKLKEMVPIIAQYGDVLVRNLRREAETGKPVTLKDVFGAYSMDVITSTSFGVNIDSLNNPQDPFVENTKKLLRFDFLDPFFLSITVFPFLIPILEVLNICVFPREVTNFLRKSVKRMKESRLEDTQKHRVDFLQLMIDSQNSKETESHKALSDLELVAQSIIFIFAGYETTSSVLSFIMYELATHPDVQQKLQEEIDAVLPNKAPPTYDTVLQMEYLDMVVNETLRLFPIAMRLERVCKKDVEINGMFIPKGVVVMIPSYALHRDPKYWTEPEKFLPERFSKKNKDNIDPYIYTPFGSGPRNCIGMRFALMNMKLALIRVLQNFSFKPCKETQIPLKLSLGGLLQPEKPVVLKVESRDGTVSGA

| Structure (SMILES) | number of metabolites found after incubation with HLMs [1] | metabolic pathway of metabolite M1 ([1]; MS supported by MetaSite) | metabolic pathway of metabolite M2 ([1]; MS supported by MetaSite) | CYP3A4 activity (% of control ± SD) [2] | % inhibition of control specific binding [3] | inhibition at 10 µM [4] | viability at 48 h, 1.56 µM [5] | cell survival [6] | concentration from which a statistically significant decrease of cell viability was observed [6] | responders at 100 mg/kg [7, 8] | responders at 100 mg/kg [7, 9] | ED50 [7] | metabolic pathway of metabolite M3 ([1]; MS supported by MetaSite) |
| --- | --- | --- | --- | --- | --- | --- | --- | --- | --- | --- | --- | --- | --- |
| CC(=O)NC(C)C(=O)N1CCN(c2cccc(C(F)(F)F)c2)CC1 (stereo not shown) [Compound 26, N-(1-oxo-1-(4-(3-(Trifluoromethyl)phenyl)piperazin-1-yl)propan-2-yl)acetamide] | two | dehydrogenation and oxidation | dehydrogenation and oxidation | 114.1 ± 8.7% | 4.5 (100) % | -4.9% | 104 ± 8.8% | approximately 40% | 12.5 µM | 100% | 100% | 15.6 mg/kg | – |
| CC(=O)NC(C)C(=O)N1CCN(c2cccc(OC(F)(F)F)c2)CC1 (stereo not shown) [Compound 28, N-(1-oxo-1-(4-(3-(Trifluoromethoxy)phenyl)piperazin-1-yl)propan-2-yl)acetamide] | three | double dehydrogenation | hydroxylation | 91.3 ± 12.7% | –6.9 (100) % | 6.5% | 88.2 ± 16.1% | approximately 40% | 25 µM | 100% | 100% | 12.1 mg/kg | double dehydrogenation |
